One data set deals with T1, human GLP-1R (Homo sapiens, UniProt P43220).
T1 construct: expressed in transfected cells
Kind of data set: In vitro activity on GLP-1R, CRE-luciferase HEK-293 cells. In kind it is cell-based. As to conditions: for GLP-1R/GCGR: ratio of EC50 GLP-1R to EC50 GCGR. In a few lines:
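HEK-293 cells stably expressing human GLP-1R or human GCGR with CRE-luciferase reporter, 5000 cells/well in DMEM/10% FBS, exposed to compound. Luminescence read after luciferase reagent; EC50 taken from concentration-response curves.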

Another data set concerns DIO mice. In words: Body weight reduction in DIO (obese) mice. Particulars: 250 μg/kg SC daily, day 11 to day 30, DIO mice. In kind it is in vivo. From the text: Forty 25-week-old DIO mice (Nanjing University model animal research center) were randomly divided into five groups (compound 4, 5, 6, 7, and normal saline group), 8 in each group, having no difference in the basis weight of each group.

For the next data set, the system named is male C57B1/6J mice. Kind of data set: Oral glucose tolerance test in male C57B1/6J mice. In kind it is in vivo. Particulars: 250 μg/kg; for AUC of blood glucose in all four OGTT curve periods (0-480 min) compared with carrier (PBS): P<0.05; for effect on oral glucose tolerance: male C57B1/6J mice. The method, then: 12-16 week-old male C57B1/6J mice (Nanjing University model animal research center) were randomly divided into groups 8 in each group, according to similar blood glucose (assessed by the blood samples obtained from the tail tip). After fasting (for 6 hours), the animals were administrated, and about 4 hours later, initial blood samples (fasting blood glucose level) were taken. Subsequently, the animals were administrated with an oral dose of glucose, and then put back into their cages (t=0). Blood glucose was measured at t=15 minutes, t=30 minutes, t=60 minutes, t=90 minutes and t=120 minutes. And then the animals were administrated with an oral dose of glucose again, and blood glucose was tracked until 8 hours.

Another data set deals with T2, human GCGR (Homo sapiens, UniProt P47871).
T2 construct: expressed in transfected cells
T2 sequence (P47871 26-477): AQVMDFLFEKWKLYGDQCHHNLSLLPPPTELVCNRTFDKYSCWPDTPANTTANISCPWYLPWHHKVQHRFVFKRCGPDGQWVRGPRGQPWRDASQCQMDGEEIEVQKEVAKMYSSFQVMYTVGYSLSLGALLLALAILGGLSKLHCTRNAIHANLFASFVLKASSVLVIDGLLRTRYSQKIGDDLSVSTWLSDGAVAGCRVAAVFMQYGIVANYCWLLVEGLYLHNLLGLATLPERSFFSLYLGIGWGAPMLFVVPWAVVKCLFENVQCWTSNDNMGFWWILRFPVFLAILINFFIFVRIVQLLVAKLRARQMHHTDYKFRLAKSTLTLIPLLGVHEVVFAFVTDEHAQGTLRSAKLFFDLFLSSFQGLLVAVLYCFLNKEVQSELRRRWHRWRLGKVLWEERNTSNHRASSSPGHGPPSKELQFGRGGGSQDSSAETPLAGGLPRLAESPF
Kind of data set: In vitro activity on GCGR, CRE-luciferase HEK-293 cells. In kind it is cell-based. As for the experimental part:
5000 of HEK-293 cells, which are used in CRE-luciferase system and express human GCGR or GLP-1R stably, were inoculated into 384 well plates according to […] DMEM/10% FBS media/well. […] After incubation, […] of luciferase reagent was added directly to each plate and mixed gently for 2 minutes. The plates were placed into an Elmer Perkin plate reader for reading. Concentration curve of the compound was made by drawing software Prism 5, and the EC50 value was calculated.

Data set [1] is described as follows: Pharmacokinetic analysis after IV or SC administration in male CD1 mice. As to conditions: for Tmax / half-life: iv. The method, then:
Pharmacokinetic parameters of the drugs were calculated by methods of model dependence (for data obtained from IV) and model independence (data obtained from SC).

The results in this text go back to US10479819B2 (priority 2014, dated 2019).

SMILES strings stand for the structures. Like-named read-outs stand apart in the source and are kept apart here. Starred links: 1 amine or outer side, 2 acyl side, 3 side chain; linkers in the order of their positions; H or OH if unused. Non-standard residues stand in square brackets, D forms with d. Residues, ends and D or L forms follow the SMILES beside them. Groups on a side chain read outwards from the residue. *: point of attachment. C18 diacid = O=C(O)CCCCCCCCCCCCCCCCC(=O)*; γGlu = O=C(O)[C@H](CCC(=O)[*:2])N[*:1]; Palmitoyl = CCCCCCCCCCCCCCCC(=O)*; PEG2 = NCCOCCOCCC(=O)O; Aib = CC(C)(N)C(=O)O

T1 sequence (P43220 24-463): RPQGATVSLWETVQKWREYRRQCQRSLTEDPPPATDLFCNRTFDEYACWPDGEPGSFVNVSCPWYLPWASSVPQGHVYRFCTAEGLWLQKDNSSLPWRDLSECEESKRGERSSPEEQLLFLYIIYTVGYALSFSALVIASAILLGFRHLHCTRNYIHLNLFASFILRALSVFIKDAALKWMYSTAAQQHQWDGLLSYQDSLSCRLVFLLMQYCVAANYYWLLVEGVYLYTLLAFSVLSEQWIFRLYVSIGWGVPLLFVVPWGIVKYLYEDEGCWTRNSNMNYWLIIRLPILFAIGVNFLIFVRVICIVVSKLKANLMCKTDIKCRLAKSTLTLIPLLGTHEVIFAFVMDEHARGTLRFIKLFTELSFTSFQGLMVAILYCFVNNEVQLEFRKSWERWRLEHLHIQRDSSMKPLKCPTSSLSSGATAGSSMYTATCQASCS

The term EC50 denotes the concentration needed to bring the measured effect to its halfway point. What is called Tmax is the time at which the peak concentration occurs. Usually half-life stands for how long it takes for the measured level to halve. A high value points to slow decline. On to `CCCCCCCCCCCCCCCC(=O)NCCOCCOCCC(=O)NCCOCCOCCC(=O)NCCCC[C@H](NC(=O)[C@H](CC(=O)O)NC(=O)[C@H](CO)NC(=O)[C@@H](NC(=O)[C@H](Cc1ccccc1)NC(=O)[C@@H](NC(=O)CNC(=O)[C@H](CCC(N)=O)NC(=O)[C@@H](CO)NC(=O)[C@@H](N)Cc1c[nH]cn1)[C@@H](C)O)[C@@H](C)O)C(=O)N[C@@H](CO)C(=O)N[C@@H](CCCCN)C(=O)N[C@@H](Cc1ccc(O)cc1)C(=O)N[C@@H](CC(C)C)C(=O)N[C@@H](CC(=O)O)C(=O)NC(C)(C)C(=O)N[C@@H](CCCNC(=N)N)C(=O)N[C@@H](CCCNC(=N)N)C(=O)N[C@@H](C)C(=O)N[C@@H](CCC(N)=O)C(=O)N[C@@H](CC(=O)O)C(=O)N[C@@H](Cc1ccccc1)C(=O)N[C@H](C(=O)N[C@@H](CCC(N)=O)C(=O)N[C@@H](Cc1c[nH]c2ccccc12)C(=O)N[C@@H](CC(C)C)C(=O)N[C@@H](CCSC)C(=O)N[C@@H](CC(N)=O)C(=O)N[C@H](C(=O)NCC(=O)NCC(=O)N1CCC[C@H]1C(=O)N[C@@H](CO)C(=O)N[C@@H](CO)C(=O)NCC(=O)N[C@@H](C)C(=O)N1CCC[C@H]1C(=O)N1CCC[C@H]1C(=O)N1CCC[C@H]1C(=O)N[C@@H](CO)C(N)=O)[C@@H](C)O)C(C)C` [Compound 5], for which, at human GLP-1R, the GLP-1R/GCGR was 0.1. In addition, on human GLP-1R (read-out: GLP-1R (EC50)), the EC50 came out at 0.06 nM. Moreover, the weight loss entry in the data set with DIO mice is recorded as “about 20%”. Further, the “body weight compared with normal saline group” value in the data set with DIO mice (P<0.05) is on record as “significantly lower”. In addition, in the data set on male C57B1/6J mice, the “AUC of blood glucose in all four OGTT curve periods (0-480 min) compared with carrier (PBS)” value (“AUC … compared with carrier (PBS)” below) is “significantly decreased” and the “effect on oral glucose tolerance” value was “significantly reduced the oral glucose tolerance”. For the same molecule, on human GCGR (read-out: GCGR (EC50)), the concentration giving a half-maximal response (EC50) is 0.43 nM. In data set [1] (mouse, in vivo), the clinical adverse effect result was “no clinical adverse effect”, the time of peak concentration (Tmax) is about 12 h and the half-life fell in the range of 4 to 6 h. In data set [1] (mouse, in vivo, sc), the peak time entry is “more than 12 hours”.
Regarding `CCCCCCCCCCCCCCCC(=O)N[C@@H](CCC(=O)NCCOCCOCCC(=O)NCCOCCOCCC(=O)NCCCC[C@H](NC(=O)[C@H](CO)NC(=O)[C@H](Cc1ccc(O)cc1)NC(=O)[C@H](CC(=O)O)NC(=O)[C@H](CO)NC(=O)[C@@H](NC(=O)[C@H](Cc1ccccc1)NC(=O)[C@@H](NC(=O)CNC(=O)[C@H](CCC(N)=O)NC(=O)[C@@H](CO)NC(=O)[C@@H](N)Cc1c[nH]cn1)[C@@H](C)O)[C@@H](C)O)C(=O)N[C@@H](CCCCN)C(=O)N[C@@H](CC(C)C)C(=O)N[C@@H](CC(=O)O)C(=O)NC(C)(C)C(=O)N[C@@H](CCCNC(=N)N)C(=O)N[C@@H](CCCNC(=N)N)C(=O)N[C@@H](C)C(=O)N[C@@H](CCC(N)=O)C(=O)N[C@@H](CC(=O)O)C(=O)N[C@@H](Cc1ccccc1)C(=O)N[C@H](C(=O)N[C@@H](CCC(N)=O)C(=O)N[C@@H](Cc1c[nH]c2ccccc12)C(=O)N[C@@H](CC(C)C)C(=O)N[C@@H](CCSC)C(=O)N[C@@H](CC(N)=O)C(=O)N[C@H](C(=O)NCC(=O)NCC(=O)N1CCC[C@H]1C(=O)N[C@@H](CO)C(=O)N[C@@H](CO)C(=O)NCC(=O)N[C@@H](C)C(=O)N1CCC[C@H]1C(=O)N1CCC[C@H]1C(=O)N1CCC[C@H]1C(=O)N[C@@H](CO)C(N)=O)[C@@H](C)O)C(C)C)C(=O)O` [Compound 17], the GLP-1R/GCGR at human GLP-1R stood at 1.2. At human GCGR (read-out: GCGR (EC50)), the half-maximal effective concentration (EC50) was found to be 0.58 nM.
With `CSCC[C@H](NC(=O)[C@H](CC(C)C)NC(=O)[C@H](Cc1c[nH]c2ccccc12)NC(=O)[C@H](CCC(N)=O)NC(=O)[C@@H](NC(=O)[C@H](Cc1ccccc1)NC(=O)[C@H](CC(=O)O)NC(=O)[C@H](CCC(N)=O)NC(=O)[C@H](C)NC(=O)[C@H](CCCNC(=N)N)NC(=O)[C@H](CCCNC(=N)N)NC(=O)C(C)(C)NC(=O)[C@H](CC(=O)O)NC(=O)[C@H](CC(C)C)NC(=O)[C@H](CCCCN)NC(=O)[C@H](CCCCNC(=O)CCOCCOCCNC(=O)CCOCCOCCNC(=O)CC[C@H](NC(=O)CCCCCCCCCCCCCCCCC(=O)O)C(=O)O)NC(=O)[C@H](CO)NC(=O)[C@H](Cc1ccc(O)cc1)NC(=O)[C@H](CC(=O)O)NC(=O)[C@H](CO)NC(=O)[C@@H](NC(=O)[C@H](Cc1ccccc1)NC(=O)[C@@H](NC(=O)CNC(=O)[C@H](CCC(N)=O)NC(=O)[C@@H](CO)NC(=O)[C@@H](N)Cc1c[nH]cn1)[C@@H](C)O)[C@@H](C)O)C(C)C)C(=O)N[C@@H](CC(N)=O)C(=O)N[C@H](C(=O)NCC(=O)NCC(=O)N1CCC[C@H]1C(=O)N[C@@H](CO)C(=O)N[C@@H](CO)C(=O)NCC(=O)N[C@@H](C)C(=O)N1CCC[C@H]1C(=O)N1CCC[C@H]1C(=O)N1CCC[C@H]1C(=O)N[C@@H](CO)C(N)=O)[C@@H](C)O` [Compound 18] (H-H[dS]QGTFTSDYSK([PEG2-PEG2-γGlu-C18 diacid])KLD[Aib]RRAQDFVQWLMNTGGPSSGAPPPS-NH2; N-terminus assumed), on human GLP-1R, the GLP-1R/GCGR was 4.2. In addition, the EC50 at human GCGR (read-out: GCGR (EC50)) amounted to 0.18 nM.
In the case of `CCCCCCCCCCCCCCCC(=O)NCCOCCOCCC(=O)NCCOCCOCCC(=O)NCCCC[C@H](NC(=O)[C@H](C)NC(=O)[C@H](C)NC(=O)[C@H](CCCCN)NC(=O)[C@H](CCC(=O)O)NC(=O)[C@H](CC(=O)O)NC(=O)[C@H](CC(C)C)NC(=O)[C@H](Cc1ccc(O)cc1)NC(=O)[C@H](CCCCN)NC(=O)[C@H](CO)NC(=O)[C@H](Cc1ccc(O)cc1)NC(=O)[C@H](CC(=O)O)NC(=O)[C@H](CO)NC(=O)[C@@H](NC(=O)[C@H](Cc1ccccc1)NC(=O)[C@@H](NC(=O)CNC(=O)[C@H](CCC(N)=O)NC(=O)[C@@H](CO)NC(=O)[C@@H](N)Cc1c[nH]cn1)[C@@H](C)O)[C@@H](C)O)C(=O)N[C@@H](CCC(=O)O)C(=O)N[C@@H](Cc1ccccc1)C(=O)N[C@H](C(=O)N[C@@H](CCC(=O)O)C(=O)N[C@@H](Cc1c[nH]c2ccccc12)C(=O)N[C@@H](CC(C)C)C(=O)N[C@@H](CC(C)C)C(=O)N[C@@H](CC(N)=O)C(=O)NCC(=O)NCC(=O)N1CCC[C@H]1C(=O)N[C@@H](CO)C(=O)N[C@@H](CO)C(=O)NCC(=O)N[C@@H](C)C(=O)N1CCC[C@H]1C(=O)N1CCC[C@H]1C(=O)N1CCC[C@H]1C(=O)N[C@@H](CO)C(N)=O)[C@@H](C)CC` [Compound 23] (H-H[dS]QGTFTSDYSKYLDEKAAK([PEG2-PEG2-Palmitoyl])EFIEWLLNGGPSSGAPPPS-NH2), at human GLP-1R, a half-maximal response (EC50) required 0.13 nM and the GLP-1R/GCGR is 0.30. In the data set with male C57B1/6J mice, the “AUC … compared with carrier (PBS)” value is recorded as “significantly decreased” and the “effect on oral glucose tolerance” value is “significantly reduced the oral glucose tolerance”. On human GCGR, this molecule registered an EC50 of 0.43 nM. Further, the clinical adverse effect entry in data set [1] (IV or SC route, male CD1 mice) is reported as “no clinical adverse effect”. Further, in data set [1] (mouse, in vivo), the time to peak (Tmax) was about 12 h and the half-life fell in the range of 4 to 6 h.
With `CCCCCCCCCCCCCCCC(=O)N[C@@H](CCC(=O)NCCOCCOCCC(=O)NCCOCCOCCC(=O)NCCCC[C@H](NC(=O)[C@H](C)NC(=O)[C@H](C)NC(=O)[C@H](CCCCN)NC(=O)[C@H](CCC(=O)O)NC(=O)[C@H](CC(=O)O)NC(=O)[C@H](CC(C)C)NC(=O)[C@H](Cc1ccc(O)cc1)NC(=O)[C@H](CCCCN)NC(=O)[C@H](CO)NC(=O)[C@H](Cc1ccc(O)cc1)NC(=O)[C@H](CC(=O)O)NC(=O)[C@H](CO)NC(=O)[C@@H](NC(=O)[C@H](Cc1ccccc1)NC(=O)[C@@H](NC(=O)CNC(=O)[C@H](CCC(N)=O)NC(=O)[C@@H](CO)NC(=O)[C@@H](N)Cc1c[nH]cn1)[C@@H](C)O)[C@@H](C)O)C(=O)N[C@@H](CCC(=O)O)C(=O)N[C@@H](Cc1ccccc1)C(=O)N[C@H](C(=O)N[C@@H](CCC(=O)O)C(=O)N[C@@H](Cc1c[nH]c2ccccc12)C(=O)N[C@@H](CC(C)C)C(=O)N[C@@H](CC(C)C)C(=O)N[C@@H](CC(N)=O)C(=O)NCC(=O)NCC(=O)N1CCC[C@H]1C(=O)N[C@@H](CO)C(=O)N[C@@H](CO)C(=O)NCC(=O)N[C@@H](C)C(=O)N1CCC[C@H]1C(=O)N1CCC[C@H]1C(=O)N1CCC[C@H]1C(=O)N[C@@H](CO)C(N)=O)[C@@H](C)CC)C(=O)O` [Compound 24] (H-H[dS]QGTFTSDYSKYLDEKAAK([PEG2-PEG2-γGlu-Palmitoyl])EFIEWLLNGGPSSGAPPPS-NH2), on human GLP-1R, the GLP-1R/GCGR was found to be 0.28. Further, in the data set on male C57B1/6J mice, the “AUC … compared with carrier (PBS)” value is “significantly decreased” and the “effect on oral glucose tolerance” value is on record as “significantly reduced the oral glucose tolerance”. Also, the EC50 at human GCGR turned out to be 0.58 nM. Moreover, the clinical adverse effect entry in data set [1] (IV or SC route, male CD1 mice) was “no clinical adverse effect”. Further, in data set [1] (mouse, in vivo), the Tmax is about 12 h and the half-life is 4 to 6 h.
